In general, Emax refers to the size of the effect at its maximum, as opposed to the concentration needed. By EC50 is commonly meant the concentration that produces a half-maximal response. Broadly, the Cmax is the highest concentration seen after dosing. Usually inhibition stands for the share of the control response that was lost under treatment. Usually clearance stands for a measure of how efficiently the substance is removed, as volume per time. The Ki is the dissociation constant of the complex between target and ligand, obtained from inhibition or displacement. Higher therefore signals lower affinity. As a reminder, the MTD is the highest dose tested that stayed within the study's limit of toxicity. A high value points to better tolerability. As a reminder, the Tmax is the time at which the peak concentration occurs. As a reminder, the IC50 is the concentration needed to halve the response being measured.

From ChEMBL document CHEMBL2177080, “N-[5-(5-fluoropyridin-3-yl)-1H-pyrazol-3-yl]-4-piperidin-1-ylbutyramide (SEN78702, WYE-308775): a medicinal chemistry effort toward an α7 nicotinic acetylcholine receptor agonist preclinical candidate” (J Med Chem, 2012) come the findings set out here.

SMILES strings stand for the structures. Calls of active or inactive are those of the source. The calls are words filed in the database; no cut-off is given here. A value given as a limit tells only on which side of the number the result lay.

Series [1] concerns the target Neuronal acetylcholine receptor subunit alpha-7 (Rattus norvegicus) (UniProt Q05941). Briefly: Agonist activity at rat alpha7 nAchR expressed in rat GH4C1 cells assessed as stimulation of calcium flux by FLIPR relative to nicotine. Type of series: functional, cell-based. Particulars: GH4-C1.
A further series has as its system Plasma. Briefly: Stability in rat plasma assessed as compound remaining incubated for 3 hrs. Type of series: ADME, cell-free.
Series [2] addresses Neuronal acetylcholine receptor subunit alpha-3 (Homo sapiens, UniProt P32297). Briefly: Agonist activity at alpha3 nAchR in human SH-SY5Y cells assessed as stimulation of calcium flux by FLIPR. Type of series: functional, cell-based. Background: Calcium assays in cells follow changes in intracellular calcium, usually with a dye or a luminescent sensor.
For series [3], the target named is Acetylcholine receptor; alpha1/beta1/delta/gamma (Homo sapiens, UniProt P02708+P07510+P11230+Q07001). The series is described as follows: Agonist activity at alpha1beta1gammadelta nAChR nAchR in human TE671 cells assessed as stimulation of calcium flux by FLIPR. The settings on record: for pIC50: TE-671. Type of series: functional, cell-based.
Acetylcholine receptor; alpha1/beta1/delta/gamma, sequence (P02708 whole entry): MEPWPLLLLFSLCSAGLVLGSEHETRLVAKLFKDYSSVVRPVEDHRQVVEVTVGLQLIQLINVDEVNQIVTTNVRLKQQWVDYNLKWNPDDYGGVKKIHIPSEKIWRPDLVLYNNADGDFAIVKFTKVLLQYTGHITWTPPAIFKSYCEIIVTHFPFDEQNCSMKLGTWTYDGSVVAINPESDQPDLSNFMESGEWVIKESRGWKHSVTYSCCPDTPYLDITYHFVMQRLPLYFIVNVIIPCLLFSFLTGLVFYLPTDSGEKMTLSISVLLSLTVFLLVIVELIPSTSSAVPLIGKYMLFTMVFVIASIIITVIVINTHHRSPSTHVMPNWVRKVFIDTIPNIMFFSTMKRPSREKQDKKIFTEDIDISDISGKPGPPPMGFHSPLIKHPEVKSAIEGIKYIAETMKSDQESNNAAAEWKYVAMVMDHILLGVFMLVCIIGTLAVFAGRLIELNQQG
Acetylcholine receptor; alpha1/beta1/delta/gamma, sequence (P07510 whole entry): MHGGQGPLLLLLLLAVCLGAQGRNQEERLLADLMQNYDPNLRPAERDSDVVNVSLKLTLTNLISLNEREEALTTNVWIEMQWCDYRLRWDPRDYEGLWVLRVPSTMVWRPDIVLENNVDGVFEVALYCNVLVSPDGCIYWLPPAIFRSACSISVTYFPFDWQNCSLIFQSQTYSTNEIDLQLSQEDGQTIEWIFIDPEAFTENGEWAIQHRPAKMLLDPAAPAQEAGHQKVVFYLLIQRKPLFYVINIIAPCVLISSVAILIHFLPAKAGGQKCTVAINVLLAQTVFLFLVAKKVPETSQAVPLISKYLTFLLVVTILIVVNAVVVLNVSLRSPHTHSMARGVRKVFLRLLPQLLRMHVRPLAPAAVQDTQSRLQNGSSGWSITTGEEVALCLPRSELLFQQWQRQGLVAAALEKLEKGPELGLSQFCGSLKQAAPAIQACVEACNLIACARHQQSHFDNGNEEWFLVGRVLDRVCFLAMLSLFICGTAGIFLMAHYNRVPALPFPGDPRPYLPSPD
Acetylcholine receptor; alpha1/beta1/delta/gamma, sequence (P11230 whole entry): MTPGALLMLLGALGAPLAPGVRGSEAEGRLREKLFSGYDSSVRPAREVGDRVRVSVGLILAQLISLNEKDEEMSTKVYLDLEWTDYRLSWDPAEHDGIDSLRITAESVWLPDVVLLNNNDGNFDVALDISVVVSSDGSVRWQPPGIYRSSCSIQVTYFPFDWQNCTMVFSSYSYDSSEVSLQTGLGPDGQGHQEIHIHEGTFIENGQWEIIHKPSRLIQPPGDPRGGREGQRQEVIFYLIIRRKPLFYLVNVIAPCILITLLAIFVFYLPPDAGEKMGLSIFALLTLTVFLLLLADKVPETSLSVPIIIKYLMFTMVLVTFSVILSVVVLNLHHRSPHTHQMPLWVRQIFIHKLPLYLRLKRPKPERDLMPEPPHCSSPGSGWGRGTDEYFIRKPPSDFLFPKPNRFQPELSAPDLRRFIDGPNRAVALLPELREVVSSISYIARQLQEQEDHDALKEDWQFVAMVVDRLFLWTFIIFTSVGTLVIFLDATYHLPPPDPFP
Acetylcholine receptor; alpha1/beta1/delta/gamma, sequence (Q07001 whole entry): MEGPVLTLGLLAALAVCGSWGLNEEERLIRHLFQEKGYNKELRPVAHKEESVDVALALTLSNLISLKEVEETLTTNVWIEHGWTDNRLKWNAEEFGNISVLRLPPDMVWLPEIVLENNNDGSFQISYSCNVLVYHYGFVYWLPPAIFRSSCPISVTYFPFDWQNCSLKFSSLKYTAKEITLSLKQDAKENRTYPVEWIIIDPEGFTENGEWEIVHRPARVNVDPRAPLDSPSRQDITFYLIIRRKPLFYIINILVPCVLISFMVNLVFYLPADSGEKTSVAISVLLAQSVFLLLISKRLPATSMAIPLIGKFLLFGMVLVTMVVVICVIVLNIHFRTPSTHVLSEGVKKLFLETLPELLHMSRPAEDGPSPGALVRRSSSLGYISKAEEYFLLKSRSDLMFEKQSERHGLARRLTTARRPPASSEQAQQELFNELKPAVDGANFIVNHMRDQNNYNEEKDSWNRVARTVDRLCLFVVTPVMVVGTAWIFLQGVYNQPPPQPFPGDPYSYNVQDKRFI
Series [4] concerns the target T1, Neuronal acetylcholine receptor subunit alpha-7 (Rattus norvegicus, UniProt Q05941). The series is described as follows: Agonist activity at rat alpha7 nAchR expressed in rat GH4C1 cells assessed as stimulation of calcium flux by FLIPR.
Series [5] is described as follows: Cmax in Wistar rat brain 3 mg/kg, po. Type of series: ADME, organism-based. Also on record: dose 3 mg/kg, route oral.
The target of series [6] is T2, Alpha-2A adrenergic receptor (Homo sapiens) (UniProt P08913).
T2 sequence (whole entry): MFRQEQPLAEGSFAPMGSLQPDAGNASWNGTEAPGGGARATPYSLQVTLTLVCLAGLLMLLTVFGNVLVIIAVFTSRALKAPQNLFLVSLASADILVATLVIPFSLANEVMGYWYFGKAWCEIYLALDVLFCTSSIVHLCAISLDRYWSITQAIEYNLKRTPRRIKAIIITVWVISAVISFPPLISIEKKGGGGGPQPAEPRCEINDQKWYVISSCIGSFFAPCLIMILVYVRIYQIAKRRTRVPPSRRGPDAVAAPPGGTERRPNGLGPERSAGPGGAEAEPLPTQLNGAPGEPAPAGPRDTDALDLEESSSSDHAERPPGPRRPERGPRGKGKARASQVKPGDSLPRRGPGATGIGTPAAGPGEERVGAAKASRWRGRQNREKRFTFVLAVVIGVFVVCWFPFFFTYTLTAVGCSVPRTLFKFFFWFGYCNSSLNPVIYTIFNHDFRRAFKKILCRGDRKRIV
The series is described as follows: Inhibition of alpha2a adrenergic receptor at 10 uM.

The target in series [7] is T3, Alpha-2C adrenergic receptor (Homo sapiens) (UniProt P18825).
T3 sequence (whole entry): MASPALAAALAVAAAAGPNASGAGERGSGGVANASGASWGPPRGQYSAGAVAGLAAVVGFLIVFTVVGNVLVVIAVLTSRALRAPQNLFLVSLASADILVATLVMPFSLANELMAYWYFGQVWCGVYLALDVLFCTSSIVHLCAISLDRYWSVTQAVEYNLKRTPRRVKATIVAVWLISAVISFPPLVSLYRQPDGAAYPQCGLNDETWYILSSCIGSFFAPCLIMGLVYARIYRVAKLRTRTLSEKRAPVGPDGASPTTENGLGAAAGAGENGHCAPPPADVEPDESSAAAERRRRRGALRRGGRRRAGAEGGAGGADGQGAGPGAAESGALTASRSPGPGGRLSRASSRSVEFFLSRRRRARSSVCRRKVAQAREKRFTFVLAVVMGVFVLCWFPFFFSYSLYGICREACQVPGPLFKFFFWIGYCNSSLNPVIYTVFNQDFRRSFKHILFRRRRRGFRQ
The series is described as follows: Inhibition of alpha2c adrenergic receptor at 10 uM.

The target in series [8] is Neuronal acetylcholine receptor subunit alpha-7 (Homo sapiens, UniProt P36544). Briefly: Agonist activity at human alpha7 nAchR by patch clamp assay. Type of series: functional.
Series [9] in a line: Clearance in Wistar rat 2 mg/kg, iv. The settings on record: in vivo. Type of series: ADME, organism-based. Set-up: dose 2 mg/kg, route intravenous.
Series [10] has as its target T4, Alpha-2B adrenergic receptor (Homo sapiens) (UniProt P18089).
T4 sequence (whole entry): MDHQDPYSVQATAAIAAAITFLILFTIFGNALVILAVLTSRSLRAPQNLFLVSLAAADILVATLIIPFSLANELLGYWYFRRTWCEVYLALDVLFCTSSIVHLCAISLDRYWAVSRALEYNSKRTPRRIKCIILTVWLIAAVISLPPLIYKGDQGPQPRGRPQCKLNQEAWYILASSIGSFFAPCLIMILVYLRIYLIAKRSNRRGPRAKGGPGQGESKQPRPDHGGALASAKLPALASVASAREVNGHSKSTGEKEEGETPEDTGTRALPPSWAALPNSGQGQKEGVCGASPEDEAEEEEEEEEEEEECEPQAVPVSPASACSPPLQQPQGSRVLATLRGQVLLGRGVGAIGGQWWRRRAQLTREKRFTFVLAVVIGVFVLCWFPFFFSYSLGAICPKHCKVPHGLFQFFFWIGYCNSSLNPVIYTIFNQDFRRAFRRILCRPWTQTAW
The series is described as follows: Inhibition of alpha2b adrenergic receptor at 10 uM.

Series [11] concerns Rattus norvegicus. Briefly: Inhibition of MK801-Induced prepulse inhibition deficits in Long Evans rat at 1 to 10 mg/kg, po administered 60 mins before MK-801 challenge. Type of series: functional, organism-based.
The test system of series [12] is Rattus norvegicus. The series is described as follows: Induction of memory enhancement Wistar rat at 1 to 10 mg/kg, po administered 30 mins before acquisition trial by novel object recognition test. Type of series: functional, organism-based.
Series [13] concerns the target T1, Neuronal acetylcholine receptor subunit alpha-7. The series is described as follows: Agonist activity at rat alpha7 nAchR expressed in rat GH4C1 cells by patch clamp assay. Type of series: functional, cell-based, GH4-C1. (In general: Patch clamp records ionic current or voltage across a cell membrane.)
For series [14] the target is unchanged. Briefly: Displacement of [3H]-epibatidine from rat alpha7 nAchR expressed in rat GH4C1 cell membranes. Also on record: species or system GH4-C1, Membrane. Background: Loss of bound radioactivity is the signal in a displacement assay; it reports binding, not function.
The subject of series [15] is Rattus norvegicus. Briefly: Inhibition of MK801-Induced prepulse inhibition deficits in Long Evans rat administered orally 60 mins before MK-801 challenge. Type of series: functional. The settings on record: po, read-out: MED.
Series [16] deals with Rattus norvegicus. The series is described as follows: Induction of memory enhancement Wistar rat administered orally 30 mins before acquisition trial by novel object recognition test. Type of series: functional. Particulars: po, read-out: MED.
The nature of series [17]: Toxicity in rat during 7-day tolerability study. Type of series: organism-based. Particulars: in vivo.
The test system of series [18] is Rattus norvegicus. Briefly: Induction of memory enhancement Wistar rat at 1 to 10 mg/kg, po administered 30 mins before acquisition trial pre-treated with 3 mg/kg alpha7 selective antagonist methyllycaconitin by novel object recognition test. Type of series: functional, organism-based.
A short description of series [19]: Tmax in Wistar rat 10 mg/kg, po. Type of series: ADME, organism-based. Set-up: dose 10 mg/kg, route oral. The settings on record: in vivo.
The target in series [20] is Histamine H3 receptor (Homo sapiens) (UniProt Q9Y5N1). The series is described as follows: Inhibition of histamine H3 receptor at 10 uM.
Histamine H3 receptor (Homo sapiens), sequence (Q9Y5N1 whole entry): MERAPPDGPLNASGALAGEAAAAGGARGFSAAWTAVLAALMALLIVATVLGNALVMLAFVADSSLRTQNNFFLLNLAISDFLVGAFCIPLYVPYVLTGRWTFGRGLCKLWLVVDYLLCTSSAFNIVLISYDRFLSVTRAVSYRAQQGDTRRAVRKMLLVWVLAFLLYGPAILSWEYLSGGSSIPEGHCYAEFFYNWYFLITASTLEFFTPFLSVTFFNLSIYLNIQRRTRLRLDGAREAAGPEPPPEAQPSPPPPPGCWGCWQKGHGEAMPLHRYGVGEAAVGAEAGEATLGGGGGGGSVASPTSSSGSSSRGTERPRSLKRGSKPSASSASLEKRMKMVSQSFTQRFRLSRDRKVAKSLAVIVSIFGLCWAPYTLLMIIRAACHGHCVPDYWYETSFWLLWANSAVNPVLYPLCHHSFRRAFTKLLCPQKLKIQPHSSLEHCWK
Series [21] has as its target Voltage-gated inwardly rectifying potassium channel KCNH2 (Homo sapiens, UniProt Q12809). The series is described as follows: Inhibition of human ERG expressed in CHO cells. Type of series: cell-based.
The target in series [22] is T5, 5-hydroxytryptamine receptor 3A (Homo sapiens, UniProt P46098).
T5 sequence (P46098 whole entry): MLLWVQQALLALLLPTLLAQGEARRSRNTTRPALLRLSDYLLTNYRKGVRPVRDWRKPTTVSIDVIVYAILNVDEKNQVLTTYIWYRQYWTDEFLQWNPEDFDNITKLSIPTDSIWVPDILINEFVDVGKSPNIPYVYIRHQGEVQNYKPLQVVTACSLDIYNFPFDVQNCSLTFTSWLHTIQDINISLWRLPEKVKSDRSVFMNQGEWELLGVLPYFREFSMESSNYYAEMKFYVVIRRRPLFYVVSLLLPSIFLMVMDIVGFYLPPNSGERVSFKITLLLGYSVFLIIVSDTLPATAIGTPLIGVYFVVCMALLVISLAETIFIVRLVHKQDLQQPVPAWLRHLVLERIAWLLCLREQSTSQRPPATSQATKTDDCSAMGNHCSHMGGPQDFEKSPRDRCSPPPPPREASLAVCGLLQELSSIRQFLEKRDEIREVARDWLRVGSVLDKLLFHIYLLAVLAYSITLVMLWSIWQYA
Briefly: (§1) Agonist activity at human 5HT3R expressed in HEK293 cells assessed as stimulation of calcium flux by FLIPR. Type of series: functional, cell-based.

The target in series [23] is T6, 5-hydroxytryptamine receptor 3A (Homo sapiens) (UniProt P46098).
T6 sequence (whole entry): T5 sequence (P46098 whole entry)
Described as §1. Type of series: functional, cell-based.

Neuronal acetylcholine receptor subunit alpha-3, sequence (P32297 whole entry): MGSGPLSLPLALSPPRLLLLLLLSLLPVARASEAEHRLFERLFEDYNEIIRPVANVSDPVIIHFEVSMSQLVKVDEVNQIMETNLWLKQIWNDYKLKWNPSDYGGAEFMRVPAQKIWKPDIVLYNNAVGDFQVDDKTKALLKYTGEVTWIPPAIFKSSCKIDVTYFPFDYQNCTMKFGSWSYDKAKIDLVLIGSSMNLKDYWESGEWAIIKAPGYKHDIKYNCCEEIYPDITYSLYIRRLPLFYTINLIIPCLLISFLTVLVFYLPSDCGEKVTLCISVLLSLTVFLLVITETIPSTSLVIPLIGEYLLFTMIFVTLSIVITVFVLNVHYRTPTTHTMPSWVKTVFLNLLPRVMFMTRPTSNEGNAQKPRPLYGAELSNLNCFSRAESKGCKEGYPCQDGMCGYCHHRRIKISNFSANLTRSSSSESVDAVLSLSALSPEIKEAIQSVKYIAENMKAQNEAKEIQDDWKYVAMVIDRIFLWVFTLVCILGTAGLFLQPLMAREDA
Neuronal acetylcholine receptor subunit alpha-7 (Rattus norvegicus), sequence (Q05941 whole entry): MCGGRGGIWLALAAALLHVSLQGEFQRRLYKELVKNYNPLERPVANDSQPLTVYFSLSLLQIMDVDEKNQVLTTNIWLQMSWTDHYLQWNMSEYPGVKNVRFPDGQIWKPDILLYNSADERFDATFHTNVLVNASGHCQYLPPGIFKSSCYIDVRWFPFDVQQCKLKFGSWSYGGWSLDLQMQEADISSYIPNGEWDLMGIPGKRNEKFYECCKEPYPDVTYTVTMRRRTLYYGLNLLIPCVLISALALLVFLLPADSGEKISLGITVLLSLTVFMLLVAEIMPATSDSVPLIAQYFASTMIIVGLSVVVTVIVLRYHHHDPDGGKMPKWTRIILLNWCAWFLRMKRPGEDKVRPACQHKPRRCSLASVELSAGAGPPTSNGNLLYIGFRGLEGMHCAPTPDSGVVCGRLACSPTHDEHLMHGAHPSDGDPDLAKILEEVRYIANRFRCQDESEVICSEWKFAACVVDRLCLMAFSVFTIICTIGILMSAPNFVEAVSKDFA
T1 sequence (Q05941 whole entry): as above
Voltage-gated inwardly rectifying potassium channel KCNH2, sequence (Q12809 whole entry): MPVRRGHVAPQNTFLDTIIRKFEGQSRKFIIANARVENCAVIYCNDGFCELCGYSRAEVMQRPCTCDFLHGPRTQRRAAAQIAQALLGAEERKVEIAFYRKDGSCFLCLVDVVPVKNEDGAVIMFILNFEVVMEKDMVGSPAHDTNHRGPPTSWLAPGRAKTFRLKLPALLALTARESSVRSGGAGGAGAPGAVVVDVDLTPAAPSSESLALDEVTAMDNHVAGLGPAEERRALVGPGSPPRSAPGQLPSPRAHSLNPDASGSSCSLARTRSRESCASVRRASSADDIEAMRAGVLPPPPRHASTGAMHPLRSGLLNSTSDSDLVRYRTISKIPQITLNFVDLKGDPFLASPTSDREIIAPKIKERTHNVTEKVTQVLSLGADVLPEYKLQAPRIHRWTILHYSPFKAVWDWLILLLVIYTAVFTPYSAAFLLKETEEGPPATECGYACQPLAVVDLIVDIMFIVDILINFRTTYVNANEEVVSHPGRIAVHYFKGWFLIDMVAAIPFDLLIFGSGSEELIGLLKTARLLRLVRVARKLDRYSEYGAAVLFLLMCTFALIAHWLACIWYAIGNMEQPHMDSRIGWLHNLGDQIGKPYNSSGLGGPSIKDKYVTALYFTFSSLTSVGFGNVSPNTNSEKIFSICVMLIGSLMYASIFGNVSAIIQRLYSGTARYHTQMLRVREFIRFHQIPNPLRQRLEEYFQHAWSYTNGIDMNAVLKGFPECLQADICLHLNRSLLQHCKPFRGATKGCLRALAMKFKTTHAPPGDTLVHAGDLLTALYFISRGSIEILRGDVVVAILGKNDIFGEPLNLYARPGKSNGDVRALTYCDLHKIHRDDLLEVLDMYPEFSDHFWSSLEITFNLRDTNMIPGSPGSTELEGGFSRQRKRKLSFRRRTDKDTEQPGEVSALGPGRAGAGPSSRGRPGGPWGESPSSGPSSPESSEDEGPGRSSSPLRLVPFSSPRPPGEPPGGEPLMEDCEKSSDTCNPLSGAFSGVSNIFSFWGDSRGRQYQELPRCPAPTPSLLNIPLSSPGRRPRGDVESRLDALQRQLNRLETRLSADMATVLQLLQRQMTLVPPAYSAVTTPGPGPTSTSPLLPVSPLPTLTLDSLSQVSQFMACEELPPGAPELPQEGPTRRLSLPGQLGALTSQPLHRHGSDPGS

Regarding `COc1ccc(-c2cc(NC(=O)CCCCCN3CCCN(C(C)=O)CC3)[nH]n2)cc1`, the Emax in series [1] is over 90%.

With `COc1cccc(-c2cc(NC(=O)CCCN3CCCCC3)[nH]n2)c1`, in the series with Plasma, the Stability result is listed as “Stable”. Also, the pIC50 result in series [2] and in series [3] was “Active” throughout. Also, the EC50 in series [4] is 468 nM.

Consider `COc1ccc(-c2cc(NC(=O)CCCN3CCCN(C(C)=O)CC3)[nH]n2)cc1`, for which the Stability result in the series with Plasma is “Stable”. Further, the Emax in series [1] is over 90%. For the same compound, the EC50 in series [4] was 912 nM.

Regarding `O=C(CCCN1CCCCC1)Nc1cc(-c2cncc(F)c2)n[nH]1`, the Stability entry with Plasma is reported as “Stable”. This compound displayed a Cmax in series [5] of 55 ng/g. In addition, the inhibition in series [6] turned out to be 73%; in series [7] it was 57%; in series [10], 64%; in [20], 62%. Besides, the EC50 in series [8] stood at 10000 nM; in series [13], 10700 nM; in series [4], 740 nM. The compound further had a clearance in series [9] of 23 mL/min/kg. The inhibition result in the series on Rattus norvegicus [11] was “Active”. Besides, in the series on Rattus norvegicus [12], the outcome was Active. In addition, the affinity in series [14] corresponds to a Ki of 390 nM. The minimal effective dose in the series on Rattus norvegicus [15] and in the series on Rattus norvegicus [16] was 3 mg/kg each time. Besides, the MTD at 7 day in [17] is at most 100 mg/kg/day. The outcome in the series with Rattus norvegicus [18] was inactive. Besides, in [19], the Tmax amounted to 1 h.

Consider `COc1ccc(-c2cc(NC(=O)CCCCCN3CCCN(C(C)=O)CC3)n[nH]2)cc1`, for which the EC50 in [4] was 1200 nM.

In the case of `COc1ccc(-c2cc(NC(=O)CCCN3CCOCC3)[nH]n2)cc1`, in series [4], the EC50 is 6610 nM.

Turning to `O=C(CCCN1CCCCC1)Nc1cc(-c2cccc(F)c2)n[nH]1`, the Stability result in the series with Plasma was “Stable”. For the same compound, the pIC50 result in [2] and in [3] was “Active” each time. In addition, the IC50 in [21] was 1290 nM. The EC50 in series [4] is 832 nM.

Turning to `COc1ccc(-c2cc(NC(=O)CCCN3CCCCCC3)[nH]n2)cc1`, the IC50 in [2] is 7940 nM; in series [3] it was over 31600 nM; in series [22] it was over 31600 nM. Also, the EC50 in series [4] is 912 nM.

For `CC(C)(C)c1cc(NC(=O)CCCN2CCCCC2)[nH]n1`, the pIC50 result in [2], in [3] and in [23] was “inactive” throughout. Also, the EC50 in [4] is over 31600 nM.

On to `COc1ccc(-c2cc(NC(=O)CCCN3CCCOCC3)[nH]n2)cc1`, for which, in [4], the EC50 was 1170 nM.

With `COc1ccc(-c2cc(NC(=O)CCN3CCCN(C(C)=O)CC3)[nH]n2)cc1`, the maximal effect (Emax) in series [1] was over 90%. In addition, the EC50 in series [4] is 8510 nM.

Regarding `COc1ccc(-c2cc(NC(=O)CCCN3CCCCC3)[nH]n2)cc1`, the Stability result in the series with Plasma is listed as “Stable”. Besides, the IC50 in series [2], in series [3] and in series [22] was over 31600 nM in each case. Further, the EC50 in [4] was 417 nM.
